Tests used:
[1] = system: parental PC12 cells; experiment: Neurite outgrowth assay, parental PC12 cells; type: cell-based, rat; conditions: for neurite outgrowth promoted by growth factor: control/parental PC12 cells, IL-6 20 ng/ml, CNTF 20 ng/ml, EGF 10 ng/ml, bFGF 20 ng/ml
Experimental: To evaluate neurite outgrowth, we plated the cells at low density (2×10^4 Cells/cm^2) onto six-well plates. Cell cultures were treated with NGF (100 ng/ml) for 48 hr or with staurosporine (50-100 nM) and EGF (10 ng/ml) for 16 hr and were fixed with 4% paraformaldehyde in PBS for 15 min. After several washes with PBS, cells with neurites exceeding the cell diameter were counted using an inverted microscope (Olympus Optical CK2, Tokyo, Japan). At the same time, five to seven images (10×) were captured by a Pixera camera, and the percentage of cells with neurites was confirmed by analyzing these images. On average, 500-800 cells were counted for each group.

[2] = system: 150Q cells; experiment: Trypan blue exclusion cell death assay, 150Q cells; type: cell-based, rat
Experimental: (§1) Cell death rate and neurite outgrowth assays. Cells were plated at a standard density (4×10^4/cm^2) in six-well plates with DMEM supplemented with 5% FBS and 10% horse serum. Cultured cells were harvested, centrifuged at 1000 rpm for 5 min, and resuspended in PBS containing 0.4% trypan blue. The cells were incubated in the trypan blue solution for 10 min and transferred to a hemocytometer, and the number of viable (phase bright) and nonviable (blue) cells was recorded. For each sample, cell counts in four corner fields of the hemocytometer were averaged.

[3] = system: PC12 cells expressing the 150Q mutant HD exon-1 protein (150Q cells); experiment: Neurite outgrowth assay, 150Q cells; type: cell-based, rat
Source text: (§2) Huntingtin constructs, transfection, and selection of stably transfected cell lines. A partial huntingtin CDNA containing 20 (20Q) or 150 CAG repeats was isolated from a lambda phage DNA that contains exon-1 of the human HD gene [provided by Dr. Gillian Bates (Mangiarini et al. (1996) Cell 87:493-506)]. The N-terminal huntingtin fragments encoded by these cDNAs were expressed using the pCIS expression vector that carries a cytomegalovirus promoter (Li et al. (1998) Hum. Molec. Genet. 7:777-782). The pCDNA3 vector, which carries the G418 resistance gene (Invitrogen, San Diego, Calif.), was cotransfected with the pCIS-huntingtin constructs. Subconfluent PC12 cells in 80 mm dishes were transfected with 7 μg of plasmid DNA and 10 μg/ml lipofectAMINE (Life Technologies) per dish. The transfected cells were then selected in the presence of 500 μg/ml G418 in DM EM plus 5% fetal bovine serum and 10% horse serum. Selected G418-resistant cells were subcloned and maintained in the same conditioned medium until each cell line contained homogenous transfected cells. […]
(§3) To evaluate neurite outgrowth, we plated the cells at low density (2×10^4 Cells/cm^2) onto six-well plates. […] After several washes with PBS, cells with neurites exceeding the cell diameter were counted using an inverted microscope (Olympus Optical CK2, Tokyo, Japan). […] On average, 500-800 cells were counted for each group.

[4] = system: 150Q cells; experiment: Cell viability (MTS) assay, 150Q cells; type: cell-based, rat
Experimental: Cell viability and apoptosis assays. […] PC12 cells were plated in 96-well plates at a density of 10,000 cells/well and maintained 16-24 hr in complete medium. […] Leptomycin B (LMB; 10 nM) [provided by Dr. Minoru Yoshida (Kudo et al. (1997) J. Biol. […] After drug treatment, 20 μl of MTS reagent (2.1 mg/ml) was added to each well. The cells were then incubated for 30-45 min at 37° C. in a 5% CO2 incubator. The reaction was stopped by adding 25 μl of 10% SDS. The plates were read with a microplate reader (SPECTRAmax Plus; Molecular Devices, Palo Alto, Calif.) at 490 nm. Each data point was obtained using a triplet-well assay.

[5] = system: 150Q cells; experiment: EM48 immunofluorescence and Hoechst staining after LMB, 150Q cells; type: cell-based, rat; conditions: LMB 10 nM
Experimental: (§4) Immunofluorescent labeling of cultured cells. Transfected cells grown in chamber slides were fixed in 4% paraformaldehyde in PBS for 15 min, permeabilized with 0.4% Triton X-100 in PBS for 30 min, blocked with 5% normal goat serum (NGS) in PBS for 1 hr, and incubated with primary antibodies in 2% NGS and PBS overnight at 4° C. After several washes, the cells were incubated with secondary antibodies conjugated with either FITC or rhodamine (Jackson ImmunoResearch, West Grove, Pa.). Hoechst dye (1 μg/ml) was used to label the nuclei. A Zeiss fluorescent microscope (Axioskop 2) and video system (Dage-MTI, Michigan City, Ind.) were used to capture images. The captured images were stored and processed using Adobe Photoshop software. Cell viability and apoptosis assays. […] PC12 cells were plated in 96-well plates at a density of 10,000 cells/well and maintained 16-24 hr in complete medium. […] Leptomycin B (LMB; 10 nM) [provided by Dr. Minoru Yoshida (Kudo et al. (1997) J. Biol. Chem. 272:29742-29751)] was added to the medium for 12-16 hr. After drug treatment, 20 μl of MTS reagent (2.1 mg/ml) was added to each well. The cells were then incubated for 30-45 min at 37° C. in a 5% CO2 incubator. The reaction was stopped by adding 25 μl of 10% SDS. The plates were read with a microplate reader (SPECTRAmax Plus; Molecular Devices, Palo Alto, Calif.) at 490 nm. […]

[6] = system: 20Q cells; experiment: EM48 immunofluorescence and Hoechst staining after LMB, 20Q cells; type: cell-based, rat; conditions: LMB 10 nM
Experimental: as §4

[7] = system: parental PC12 cells; conditions: PC12 cells (Yao et al. 1997); cited from earlier work
[8] = system: 20Q cells; experiment: Cell viability (MTS) assay, 20Q cells; type: cell-based, rat; conditions: 20Q cells vs parental PC12 cells, >250 nM staurosporine
Experimental: Cell viability was determined by a modified 3-(4,5-dimethylthiazol-2-yl)-2,5-diphenyltetrazohum bromide (MTS) assay (Cell Titer 96; Promega), which is based on the conversion of tetrazolium salt 3-(4,5-dimethylthiazol-2-yl)-5-(3-carboxymethoxyphenyl)-2-(4-sulfophenyl) 2-H-tetrazolium by mitochondrial dehydrogenase to a formazan product, as measured at an absorbance of 490 nm. PC12 cells were plated in 96-well plates at a density of 10,000 cells/well and maintained 16-24 hr in complete medium. Cells were then changed to medium containing 1% FBS in the absence or presence of staurosporine at different concentrations. Staurosporine was dissolved in 2 mM dimethylsulfoxide (DMSO) and diluted in the medium at various concentrations. […] After drug treatment, 20 μl of MTS reagent (2.1 mg/ml) was added to each well. The cells were then incubated for 30-45 min at 37° C. in a 5% CO2 incubator. The reaction was stopped by adding 25 μl of 10% SDS. The plates were read with a microplate reader (SPECTRAmax Plus; Molecular Devices, Palo Alto, Calif.) at 490 nm. Each data point was obtained using a triplet-well assay.

[9] = system: parental PC12 cells; experiment: Trypan blue exclusion cell death assay, parental PC12 cells; type: cell-based, rat; conditions: 100 nm staurosporine
Experimental: as §1

[10] = system: PC12 cells expressing the 20Q HD exon-1 protein (20Q cells); experiment: Neurite outgrowth assay, 20Q cells; type: cell-based, rat; conditions: IL-6 20 ng/ml
Source text: as §2, §3

[11] = 150Q cells treated with EGF and staurosporine together

EGF: epidermal growth factor (NSDSECPLSHDGYCLHDGVCMYIEALDKYACNCVVGYIGERCQYRDLKWWELR; Epidermal growth factor; UniProt P01133 971-1023, looked up)
neurite outgrowth promoted by growth factor [1]: very weak effect | effect of EGF on cell death [2, 11]: reduced cell death | effect of EGF on neurite outgrowth [3, 11]: significantly enhanced neurite outgrowth | effect of EGF on cell viability ([4]; 150Q cells, EGF 10 ng/ml in the presence of 10-100 nM staurosporine): significantly increased cell viability

CCC(=C/[C@H](C)C/C=C/C(C)=C/[C@@H](C)C(=O)[C@@H](C)[C@H](O)[C@@H](C)C/C(C)=C/C(=O)O)/C=C/[C@@H]1OC(=O)C=C[C@@H]1C [LMB, Leptomycin B]
DNA fragmentation after LMB [5]: more 150Q cells showed DNA fragmentation | intranuclear EM48 labeling after LMB ([5]; vs without LMB): more 150Q cells had intense intranuclear EM48 labeling | cell viability after exposure to LMB ([4]; 150Q cells vs control cells, LMB 10 nM): more 150Q cells than control cells were dying | DNA fragmentation after LMB [6]: very few LMB-treated 20Q cells had DNA fragmentation | nuclear labeling after LMB [6]: increased the nuclear labeling of some 20Q cells

CN[C@@H]1C[C@H]2O[C@@](C)([C@@H]1OC)n1c3ccccc3c3c4c(c5c6ccccc6n2c5c31)C(=O)NC4 [staurosporine]
neurite outgrowth with staurosporine ([1]; parental PC12 cells, 100 nm staurosporine): grew neurites | cell death with staurosporine ([2]; 150Q cells, 100 nm staurosporine): killed a significant number of 150Q cells | neurite outgrowth with staurosporine ([3]; 150Q cells, 100 nm staurosporine, living cells): some of the living 150Q cells displayed neurite outgrowth | time to initiation of neurite outgrowth [7]: 4 to 6 h | cell killing by higher doses of staurosporine [8]: killed more 20Q cells than parental PC12 cells | susceptibility to staurosporine (cell viability) ([4]; 150Q cells vs 20Q or parental PC12 cells, 10-125 nM staurosporine): more susceptible | cell death with staurosporine [9]: without displaying significant cell death

IL-6: interleukin-6
neurite outgrowth promoted by growth factor [1]: promoted neurite outgrowth | neurite outgrowth promoted by growth factor [10]: promoted neurite outgrowth

— US6355481B1, “Hybridoma cell line and monoclonal antibody for huntingtin protein” (Emory University, priority 1999, dated 2002)
